This note sets out measurements from patent publication US20090149463A1, “Therapeutic agents” (priority 2004, published 2009).

One data set concerns the target T1, CB1 receptor (Homo sapiens, UniProt P21554).
T1 construct: expressed in transfected cells
Kind of data set: [35S]-GTPγS binding assay on membranes from cells stably transfected with the CB1 gene, inhibition of CP55940 (EC80). It is filed as biochemical. To be noted: half maximal inhibition of GTPγS binding in presence of EC80 concentration of agonist CP55940; CB1-transfected cell membranes. The method, then:
Compounds of the present invention are active against the receptor product of the CB1 gene. The affinity of the compounds of the invention for central cannabinoid receptors is demonstrable in methods described in Devane et al, Molecular Pharmacology, 1988, 34, 605 or those described in WO01/70700 or EP 656354. Alternatively the assay may be performed as follows.
10 μg of membranes prepared from cells stably transfected with the CB1 gene were suspended in 200 μl of 100 mM NaCl, 5 mM MgCl2, 1 mM EDTA, 50 mM HEPES (pH 7.4), 1 mM DTT, 0.1% BSA and 100 μM GDP. To this was added an EC80 concentration of agonist (CP55940), the required concentration of test compound and 0.1 μCi [^35S]-GTPγS. The reaction was allowed to proceed at 30° C. for 45 min. […] Filters were then covered with scintilant and counted for the amount of [^35S]-GTPγS retained by the filter.
Activity is measured in the absence of all ligands (minimum activity) or in the presence of an EC80 concentration of CP55940 (maximum activity). […] At various concentrations of novel ligand, activity is calculated as a percentage of the maximum activity and plotted. The data are fitted using the equation y=A+((B−A)/1+((C/x)UD)) and the IC50 value determined as the concentration required to give half maximal inhibition of GTPγS binding under the conditions used.
(In general: GTPγS resists hydrolysis and so accumulates on activated G proteins.)

The structures appear in SMILES notation.

T1 sequence (P21554 whole entry): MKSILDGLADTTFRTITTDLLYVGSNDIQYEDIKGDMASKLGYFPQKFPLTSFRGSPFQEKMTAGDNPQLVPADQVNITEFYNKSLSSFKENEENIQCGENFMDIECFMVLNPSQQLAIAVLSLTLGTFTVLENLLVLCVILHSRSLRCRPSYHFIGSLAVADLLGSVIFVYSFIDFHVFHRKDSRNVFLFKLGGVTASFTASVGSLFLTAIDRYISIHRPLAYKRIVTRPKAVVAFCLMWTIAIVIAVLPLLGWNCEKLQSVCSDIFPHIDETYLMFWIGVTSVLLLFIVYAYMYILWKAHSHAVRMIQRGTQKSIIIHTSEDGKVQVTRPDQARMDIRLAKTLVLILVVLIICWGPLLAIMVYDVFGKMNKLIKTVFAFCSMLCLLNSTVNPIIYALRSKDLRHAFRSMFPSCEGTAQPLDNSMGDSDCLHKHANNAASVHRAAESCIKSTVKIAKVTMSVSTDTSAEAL

With `CCCS(=O)(=O)Oc1ccc(-c2c(C)c(C(=O)NN3CCCCC3)nn2-c2ccc(Cl)cc2Cl)cc1` [Example 1, Propane-1-sulfonic acid 4-[2-(2,4-dichlorophenyl)-4-methyl-5-(piperidin-1-ylcarbamoyl)2H-pyrazol-3-yl]-phenyl Ester], the melting point (commonly the temperature of the solid-liquid transition) came to 190 °C.
As for `CCCS(=O)(=O)Oc1ccc(-c2c(C)c(C(=O)NC3(C(=O)OC)CCCC3)nn2-c2ccc(Cl)cc2Cl)cc1` [Example 10, Methyl 1-{[(1-(2,4-dichlorophenyl)-4-methyl-5-{4[(propylsulfonyl)oxy]phenyl}-1H-pyrazol-3-yl)carbonyl]amino}cyclopentanecarboxylate], the IC50 (usually the concentration that gives 50% inhibition) on CB1 receptor was 6 nM.
On the same count and under the same terms, under `CCCOC(=O)Oc1ccc(-c2c(C)c(C(=O)NN3CCCCC3)nn2-c2ccc(Cl)cc2Cl)cc1` [Example 11, Carbonic acid 4-[2-(2,4-dichlorophenyl)-4-methyl-5-(piperidine-1-ylcarbamoyl)-2H-pyrazol-3-yl]-phenyl Ester Propyl Ester] stands 6.4 nM.
